Measurements published in patent US20130123319A1, “Medthod of Treating a systemic inflammatory disorder and damaged internal tissues” (priority 2011, published 2013).
Like-named read-outs stand apart in the source and are kept apart here.

Experiments:
[1] = system: Myasthenia Gravis without Thymoma; test: Case report: patient with Myasthenia Gravis given intravenous nutritional infusion; type: in vivo, human; details: day 5 of the hospitalization
Method: In 1990 I began to treat a patient with Myasthenia Gravis without Thymoma, an autoimmune disorder, which causes a decrease in the availability of Acetylcholine at the muscle endplate. Pyridostigmine, which increases the amount of Acetylcholine available at the endplate, and later Prednisone, was added for control of their myasthenia. The later acts by reducing the inflammatory response at the muscle endplate. In 1992 they underwent a bowel operation for correction of an enterorectal fistula and was unable to eat orally or gastrically to be fed. They were put on the standardized intravenous nutritional protocol in the hospital in which I worked, which included 3% Glycerin plus 3% Amino Acids, (see Table 1) at a rate of 100 ccs/hour. This was given for 6 days. There was no change in their Myasthenia Gravis. Twelve days later they were readmitted with abdominal pain and the same IV nutrition was administered. On day 5 of the hospitalization they developed a cholinergic crisis, which was relieved by Atropine. Pyridostigmine and Prednisone were discontinued. […] They were readmitted to the hospital 4 years later because of difficulty swallowing and again was given intravenous 3% Glycerin and 3% Amino Acids. […]

[2] = system: Behcet's Disease; test: Case reports: patients with exacerbation of Behcet's Disease; type: in vivo, human
From the text: Behcet's Syndrome is a worldwide disorder that seems to be more severe and more common along the Silk Route and in Japan.
This happened back in the year 2000.

[3] = in vivo, cited from earlier work
[4] = system: bacteria; details: virus specimens; more potent when mixed with serum; cited from earlier work

For `CN1[C@@H]2CC[C@H]1C[C@@H](OC(=O)C(CO)c1ccccc1)C2` (some centres unmarked) [Atropine], the cholinergic crisis [1] was “relieved”.

In the case of `OCC(O)CO` [Glycerin], the “rate of improvement in autoimmune diseases, especially Behcet's Disease” value ([2]; inventor's review of the cases) is given as “quick or rapid improvement”, the “central nervous system involvement” value ([2]; one patient with neuro-Behcet's disease) is given as “improved central nervous system involvement rapidly” and the toxicity [3] is given as “low toxicity”. For the same compound, the toxicity ([3]; listed as Sterilized Glycerin) was “non-toxic” and the “bacteria in the specimens” value [4] was “reduced bacteria”.

For `C[C@]12C=CC(=O)C=C1CC[C@@H]1[C@@H]2C(=O)C[C@@]2(C)[C@H]1CC[C@]2(O)C(=O)CO` [Prednisone, reference compound], the “response of Behcet's exacerbation” value ([2]; eleven patients, high dose) was “failed to respond” and the “response of Behcet's exacerbations” value ([2]; over 20 patients since 2000, high doses) was “usually responded”.
